For one compound, mass density and refractive index results are on record in the NIST ThermoML archive (doi:10.1016/j.jct.2009.05.008).

Usually mass density stands for mass per unit of volume. The refractive index is a measure of how strongly the sample bends light.

± gives the expanded uncertainty stated by the source.

For data set [1] the following is noted: 298.15 K; 101.33 kPa; Liquid; Vibrating tube method.
Data set [2] can be described thus: refractive index (Na D-line) (dimensionless). The conditions noted are these: 298.15 K; 101.33 kPa; Liquid; Standard Abbe refractometry.

Take `CCOS(=O)(=O)[O-].CC[n+]1cccc(C)c1` [1-ethyl-3-methylpyridinium ethylsulfate]: the mass density in data set [1] was 1219.61 ± 1.1 kg/m3. For the same compound, the refractive index in data set [2] is recorded as 1.50591 ± 0.00075.
